According to patent US8802597B2, “Herbicidal pyrimidines” (E I du Pont de Nemours and Company, priority 2003, dated 2014):

Key:
Assay in all cases: Test D pre/postemergence
Type in all cases: in vivo
Details in all cases: scale 0 to 100 (100 = complete control)
[1] = test system: wheat (Triticum aestivum)
Text: (§1) Seeds of plant species selected from catchweed bedstraw (galium; Galium aparine), common chickweed (Stellaria media), kochia (Kochia scoparia), lambsquarters (Chenopodium album), pigweed (Amaranthus retroflexus), Russian thistle (Salsola kali), wild buckwheat (Polygonum convolvulus), wild mustard (Sinapis arvensis), winter barley (Hordeum vulgare), and wheat (Triticum aestivum) were planted and treated preemergence with test chemicals formulated in a non-phytotoxic solvent mixture which included a surfactant.
(§2) At the same time, plants selected from these crop and weed species were treated with postemergence applications of some of the test chemicals formulated in the same manner. Plants ranged in height from 2 to 18 cm (1- to 4-leaf stage) for postemergence treatments. Treated plants and controls were maintained in a controlled growth environment for 15 to 25 days after which time all species were compared to controls and visually evaluated. Plant response ratings, summarized in Table D, are based on a scale of 0 to 100 where 0 is no effect and 100 is complete control. A dash (-) response means no test result.

[2] = test system: wild buckwheat (Polygonum convolvulus)
Text: as §1, §2

[3] = test system: wild mustard (Sinapis arvensis)
Text: as §1, §2

[4] = test system: pigweed (Amaranthus retroflexus)
Text: as §1, §2

[5] = test system: Russian thistle (Salsola kali)
Text: as §1, §2

[6] = test system: common chickweed (Stellaria media)
Text: as §1, §2

kochia (Kochia scoparia) = test system: kochia (Kochia scoparia)
Text: as §1, §2

[7] = test system: lambsquarters (Chenopodium album)
Text: as §1, §2

[8] = test system: catchweed bedstraw (galium; Galium aparine)
Text: as §1, §2

Structure (SMILES): COC(=O)c1nc(C2CC2C)nc(N)c1Br (centres unmarked) [Compound 28]
- Plant response rating, Wheat ([1]; Postemergence, 62 g ai/ha): 20
- Plant response rating, Wheat ([1]; Postemergence, 125 g ai/ha): 35
- Plant response rating, Wheat ([1]; Postemergence, 250 g ai/ha): 35
- Plant response rating, Wheat ([1]; Preemergence, 62 g ai/ha): 20
- Plant response rating, Wheat ([1]; Preemergence, 125 g ai/ha): 35
- Plant response rating, Wheat ([1]; Preemergence, 250 g ai/ha): 35
- Plant response rating, Buckwheat, Wild ([2]; Postemergence, 62 g ai/ha): 35
- Plant response rating, Buckwheat, Wild ([2]; Postemergence, 125 g ai/ha): 55
- Plant response rating, Buckwheat, Wild ([2]; Postemergence, 250 g ai/ha): 60
- Plant response rating, Buckwheat, Wild ([2]; Preemergence, 62 g ai/ha): 45
- Plant response rating, Buckwheat, Wild ([2]; Preemergence, 125 g ai/ha): 45
- Plant response rating, Buckwheat, Wild ([2]; Preemergence, 250 g ai/ha): 60
- Plant response rating, Mustard, Wild ([3]; Postemergence, 62 g ai/ha): 45
- Plant response rating, Mustard, Wild ([3]; Postemergence, 125 g ai/ha): 60
- Plant response rating, Mustard, Wild ([3]; Postemergence, 250 g ai/ha): 60
- Plant response rating, Mustard, Wild ([3]; Preemergence, 62 g ai/ha): 60
- Plant response rating, Mustard, Wild ([3]; Preemergence, 125 g ai/ha): 60
- Plant response rating, Mustard, Wild ([3]; Preemergence, 250 g ai/ha): 60
- Plant response rating, Pigweed ([4]; Postemergence, 62 g ai/ha): 60
- Plant response rating, Pigweed ([4]; Postemergence, 125 g ai/ha): 60
- Plant response rating, Pigweed ([4]; Postemergence, 250 g ai/ha): 70
- Plant response rating, Pigweed ([4]; Preemergence, 62 g ai/ha): 45
- Plant response rating, Pigweed ([4]; Preemergence, 250 g ai/ha): 80
- Plant response rating, Russian Thistle ([5]; Postemergence, 62 g ai/ha): 65
- Plant response rating, Russian Thistle ([5]; Postemergence, 125 g ai/ha): 70
- Plant response rating, Russian Thistle ([5]; Postemergence, 250 g ai/ha): 70
- Plant response rating, Russian Thistle ([5]; Preemergence, 62 g ai/ha): 45
- Plant response rating, Russian Thistle ([5]; Preemergence, 125 g ai/ha): 80
- Plant response rating, Russian Thistle ([5]; Preemergence, 250 g ai/ha): 100
- Plant response rating, Chickweed ([6]; Postemergence, 62 g ai/ha): 65
- Plant response rating, Chickweed ([6]; Postemergence, 125 g ai/ha): 65
- Plant response rating, Chickweed ([6]; Postemergence, 250 g ai/ha): 65
- Plant response rating, Chickweed ([6]; Preemergence, 62 g ai/ha): 60
- Plant response rating, Chickweed ([6]; Preemergence, 125 g ai/ha): 60
- Plant response rating, Chickweed ([6]; Preemergence, 250 g ai/ha): 60
- Plant response rating, Kochia (kochia (Kochia scoparia); Postemergence, 62 g ai/ha): 70
- Plant response rating, Kochia (kochia (Kochia scoparia); Postemergence, 125 g ai/ha): 75
- Plant response rating, Kochia (kochia (Kochia scoparia); Postemergence, 250 g ai/ha): 75
- Plant response rating, Kochia (kochia (Kochia scoparia); Preemergence, 62 g ai/ha): 45
- Plant response rating, Kochia (kochia (Kochia scoparia); Preemergence, 125 g ai/ha): 80
- Plant response rating, Kochia (kochia (Kochia scoparia); Preemergence, 250 g ai/ha): 100
- Plant response rating, Lambsquarters ([7]; Postemergence, 62 g ai/ha): 65
- Plant response rating, Lambsquarters ([7]; Postemergence, 125 g ai/ha): 70
- Plant response rating, Lambsquarters ([7]; Postemergence, 250 g ai/ha): 75
- Plant response rating, Lambsquarters ([7]; Preemergence, 62 g ai/ha): 60
- Plant response rating, Lambsquarters ([7]; Preemergence, 125 g ai/ha): 60
- Plant response rating, Lambsquarters ([7]; Preemergence, 250 g ai/ha): 60
- Plant response rating, Galium ([8]; Postemergence, 62 g ai/ha): 100
- Plant response rating, Galium ([8]; Postemergence, 250 g ai/ha): 100
- Plant response rating, Galium ([8]; Preemergence, 62 g ai/ha): 100
- Plant response rating, Galium ([8]; Preemergence, 125 g ai/ha): 100
- Plant response rating, Galium ([8]; Preemergence, 250 g ai/ha): 100

Structure (SMILES): COC(=O)c1nc(-c2ccc(Cl)cc2)nc(N)c1Cl [Compound 58, methyl 6-amino-5-chloro-2-(4-chlorophenyl)-4-pyrimidinecarboxylate]
- Plant response rating, Wheat ([1]; Postemergence, 62 g ai/ha): 55
- Plant response rating, Wheat ([1]; Postemergence, 125 g ai/ha): 60
- Plant response rating, Wheat ([1]; Postemergence, 250 g ai/ha): 70
- Plant response rating, Wheat ([1]; Postemergence, 500 g ai/ha): 85
- Plant response rating, Wheat ([1]; Preemergence, 62 g ai/ha): 25
- Plant response rating, Wheat ([1]; Preemergence, 125 g ai/ha): 50
- Plant response rating, Wheat ([1]; Preemergence, 250 g ai/ha): 60
- Plant response rating, Wheat ([1]; Preemergence, 500 g ai/ha): 70
- Plant response rating, Buckwheat, Wild ([2]; Postemergence, 62 g ai/ha): 65
- Plant response rating, Buckwheat, Wild ([2]; Postemergence, 125 g ai/ha): 90
- Plant response rating, Buckwheat, Wild ([2]; Postemergence, 250 g ai/ha): 100
- Plant response rating, Buckwheat, Wild ([2]; Postemergence, 500 g ai/ha): 100
- Plant response rating, Buckwheat, Wild ([2]; Preemergence, 62 g ai/ha): 40
- Plant response rating, Buckwheat, Wild ([2]; Preemergence, 125 g ai/ha): 80
- Plant response rating, Buckwheat, Wild ([2]; Preemergence, 250 g ai/ha): 100
- Plant response rating, Buckwheat, Wild ([2]; Preemergence, 500 g ai/ha): 100
- Plant response rating, Mustard, Wild ([3]; Postemergence, 62 g ai/ha): 100
- Plant response rating, Mustard, Wild ([3]; Postemergence, 125 g ai/ha): 100
- Plant response rating, Mustard, Wild ([3]; Postemergence, 250 g ai/ha): 100
- Plant response rating, Mustard, Wild ([3]; Postemergence, 500 g ai/ha): 100
- Plant response rating, Mustard, Wild ([3]; Preemergence, 62 g ai/ha): 65
- Plant response rating, Mustard, Wild ([3]; Preemergence, 125 g ai/ha): 100
- Plant response rating, Mustard, Wild ([3]; Preemergence, 250 g ai/ha): 100
- Plant response rating, Mustard, Wild ([3]; Preemergence, 500 g ai/ha): 100
- Plant response rating, Pigweed ([4]; Postemergence, 62 g ai/ha): 80
- Plant response rating, Pigweed ([4]; Postemergence, 125 g ai/ha): 100
- Plant response rating, Pigweed ([4]; Postemergence, 250 g ai/ha): 100
- Plant response rating, Pigweed ([4]; Postemergence, 500 g ai/ha): 100
- Plant response rating, Pigweed ([4]; Preemergence, 62 g ai/ha): 70
- Plant response rating, Pigweed ([4]; Preemergence, 125 g ai/ha): 100
- Plant response rating, Pigweed ([4]; Preemergence, 250 g ai/ha): 100
- Plant response rating, Pigweed ([4]; Preemergence, 500 g ai/ha): 100
- Plant response rating, Russian Thistle ([5]; Postemergence, 62 g ai/ha): 70
- Plant response rating, Russian Thistle ([5]; Postemergence, 125 g ai/ha): 70
- Plant response rating, Russian Thistle ([5]; Postemergence, 250 g ai/ha): 70
- Plant response rating, Russian Thistle ([5]; Postemergence, 500 g ai/ha): 80
- Plant response rating, Russian Thistle ([5]; Preemergence, 62 g ai/ha): 40
- Plant response rating, Russian Thistle ([5]; Preemergence, 125 g ai/ha): 65
- Plant response rating, Russian Thistle ([5]; Preemergence, 250 g ai/ha): 70
- Plant response rating, Russian Thistle ([5]; Preemergence, 500 g ai/ha): 85
- Plant response rating, Chickweed ([6]; Preemergence, 62 g ai/ha): 60
- Plant response rating, Chickweed ([6]; Preemergence, 250 g ai/ha): 75
- Plant response rating, Chickweed ([6]; Preemergence, 500 g ai/ha): 100
- Plant response rating, Kochia (kochia (Kochia scoparia); Postemergence, 62 g ai/ha): 70
- Plant response rating, Kochia (kochia (Kochia scoparia); Postemergence, 125 g ai/ha): 100
- Plant response rating, Kochia (kochia (Kochia scoparia); Postemergence, 250 g ai/ha): 100
- Plant response rating, Kochia (kochia (Kochia scoparia); Postemergence, 500 g ai/ha): 100
- Plant response rating, Kochia (kochia (Kochia scoparia); Preemergence, 62 g ai/ha): 35
- Plant response rating, Kochia (kochia (Kochia scoparia); Preemergence, 125 g ai/ha): 95
- Plant response rating, Kochia (kochia (Kochia scoparia); Preemergence, 250 g ai/ha): 100
- Plant response rating, Kochia (kochia (Kochia scoparia); Preemergence, 500 g ai/ha): 100
- Plant response rating, Lambsquarters ([7]; Postemergence, 62 g ai/ha): 80
- Plant response rating, Lambsquarters ([7]; Postemergence, 125 g ai/ha): 85
- Plant response rating, Lambsquarters ([7]; Postemergence, 250 g ai/ha): 100
- Plant response rating, Lambsquarters ([7]; Postemergence, 500 g ai/ha): 100
- Plant response rating, Lambsquarters ([7]; Preemergence, 62 g ai/ha): 60
- Plant response rating, Lambsquarters ([7]; Preemergence, 125 g ai/ha): 100
- Plant response rating, Lambsquarters ([7]; Preemergence, 250 g ai/ha): 100
- Plant response rating, Lambsquarters ([7]; Preemergence, 500 g ai/ha): 100
- Plant response rating, Galium ([8]; Postemergence, 62 g ai/ha): 100
- Plant response rating, Galium ([8]; Postemergence, 125 g ai/ha): 100
- Plant response rating, Galium ([8]; Postemergence, 250 g ai/ha): 100
- Plant response rating, Galium ([8]; Postemergence, 500 g ai/ha): 100
- Plant response rating, Galium ([8]; Preemergence, 62 g ai/ha): 100
- Plant response rating, Galium ([8]; Preemergence, 125 g ai/ha): 100
- Plant response rating, Galium ([8]; Preemergence, 250 g ai/ha): 100
- Plant response rating, Galium ([8]; Preemergence, 500 g ai/ha): 100
